Publication PMC7363588, “Mapping of the FGF14:Nav1.6 complex interface reveals FLPK as a functionally active peptide modulating excitability” (Physiological Reports, 2020)
Entries after “also recorded” stand apart in the source; their conditions may differ. Peptide text beside a SMILES is read from it.

Each compound was assayed on FGF14^V160A:Nav1.6 complex (assay: LCA, CLuc-FGF14^V160A). Conditions: 50 µM peptide, 12 hr, HEK293, vs DMSO.
Format: cell-based, human
From the text: Plasmids used in this study derived from the following clones: human FGF14‐1b isoform (accession number: NM_175929.2) and human Nav1.6 (accession number: NM_014191.3). The CLuc‐FGF14, CD4‐Nav1.6‐NLuc, constructs and the pcDNA3.1 vector (Invitrogen, Carlsbad, CA) were engineered and characterized as previously described (Goetz et al., 2009; Shavkunov et al., 2012,2013,2015; Ali et al., 2016, 2018; Wadsworth et al., 2019). The plasmid pGL3 expressing full length Firefly (Photinus pyralis) luciferase was a gift from Dr. P. Sarkar (Department of Neurology, UTMB). For protein purification studies, cDNAs encoding FGF14‐1b (accession number NP_787125; aa 64–252) or the C‐terminal tail of Nav1.6 (accession number #NP_001171455; aa 1756–1939) were subcloned into suitable pET bacterial expression vectors (pET28a‐FGF14; pET30a‐Nav1.6) with a 6X His‐tag at the N‐terminal site; these plasmids were a gift of Dr. Moosa Mohammadi (NYU, Langone Medical Center). The mutation coding for FGF14^V160A was generated by site‐directed mutagenesis and PCR using FGF14‐1b as a template described previously (Ali et al., 2016). […]
Twenty‐four hours after transfection, HEK293 cells were replated from the 24‐well plate using a 0.04% Trypsin:EDTA mixture dissolved in PBS. […] The bioluminescence reaction was initiated by dispensing 100 µl of D‐luciferin substrate (1.5 mg/ml dissolved in PBS) using a Synergy^TM H4 Multi‐Mode Micro plate Reader (Biotech, Winooski, VT). Luminescence readings were initiated after 3 s of mild plate shaking and performed at 2 min intervals for 20 min with integration times of 0.5 s. […]
To test the hypothesis that FLPK, PLEV and/or EYYV in cells could act as FGF14 inhibitors of the FGF14:Nav1.6 complex assembly, the complex was reconstituted using LCA (Ali et al., 2014, 2016; Hsu et al., 2015, 2017; Shavkunov et al., 2012,2013,2015; Wadsworth et al., 2019). HEK293 cells transfected with constructs expressing CLuc‐FGF14 and CD4‐Nav1.6 C‐tail‐NLuc in which luminescence is detected upon addition of the D‐luciferin substrate as a read‐out of protein binding (Figure 3). […]

| Compound | effect on FGF14^V160A:Nav1.6 complex formation |
| --- | --- |
| CC(=O)N[C@@H](Cc1ccccc1)C(=O)N[C@@H](CC(C)C)C(=O)N1CCC[C@H]1C(=O)N[C@@H](CCCCN)C(N)=O [FLPK] (Ac-FLPK-NH2) | prevented the effect of FLPK and EYYV; also recorded: abolished |
| PLEV [tetrapeptide previously designed from FGF14:FGF14 dimer interface; docked with N-terminal acetylation and C-terminal amidation] | not PLEV |
| EYYV [tetrapeptide previously designed from FGF14:FGF14 dimer interface; docked with N-terminal acetylation and C-terminal amidation] | prevented the effect of FLPK and EYYV; also recorded: abolished |
